Results reported in patent US12686690B2, “Macrocyclic urea orexin receptor agonists” (Merck Sharp & Dohme LLC, priority 2020, dated 2026).

Molecular target: T1, hOX2R (Homo sapiens, UniProt O43614)
T1 construct: expressed in transfected cells; host or cells: CHO cells (G418 selection)
T1 sequence (O43614 1-444): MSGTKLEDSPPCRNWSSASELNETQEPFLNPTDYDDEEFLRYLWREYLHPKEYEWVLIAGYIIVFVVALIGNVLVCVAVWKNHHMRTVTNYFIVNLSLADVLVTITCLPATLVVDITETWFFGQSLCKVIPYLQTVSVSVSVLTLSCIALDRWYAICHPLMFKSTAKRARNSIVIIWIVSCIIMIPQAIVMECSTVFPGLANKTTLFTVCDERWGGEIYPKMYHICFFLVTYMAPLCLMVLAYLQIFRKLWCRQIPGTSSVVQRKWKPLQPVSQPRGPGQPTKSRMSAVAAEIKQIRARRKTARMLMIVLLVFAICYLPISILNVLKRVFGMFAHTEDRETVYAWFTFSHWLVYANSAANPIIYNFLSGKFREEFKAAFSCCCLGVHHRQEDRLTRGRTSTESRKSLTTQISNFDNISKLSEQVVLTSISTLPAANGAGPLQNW
Assay: hOX2R IPone assay (orexin receptor agonism)
Assay type: cell-based
Settings: IPone readout; for hOX2R_Ipone max %act: maximal activation; for EC50: orexin receptor agonist, read-out: hOX2R_IPone EC50

SMILES | hOX2R_Ipone max %act [%] | EC50 [nM]
CCN1C(=O)NC(C)/C=C/CC(F)(F)COc2cn3ccnc3c(n2)-c2cc(ncc2OC)[C@H]1C (stereo partly drawn) [Example 220, (1^7E,3R,8E)-4-ethyl-11,11-difluoro-25-methoxy-3,7-dimethyl-13-oxa-4,6-diaza-1(6,8)-imidazo[1,2-a]pyrazina-2(4,2)-pyridinacyclotridecaphan-8-en-5-one] | 108.5 | 12.1
CCN1C(=O)N[C@@H](CCC(F)(F)F)CCCCCOc2nc(cn3ccnc23)-c2nc(ncc2OC)[C@H]1C [Example 117B, (12R,16R)-13-ethyl-8-methoxy-12-methyl-16-(3,3,3-trifluoropropyl)-12,13,16,17,18,19,20,21-octahydro-6,23:11,7-di(azeno)imidazo[2,1-c][1,4,10,13,15]oxatetraazacyclohenicosin-14(15H)-one] | 101.9 | 1.5
CCN1C(=O)NC(CC2(C(F)F)CC2)CCCCCOc2nc(cn3ccnc23)-c2cc(ncc2OC)[C@H]1C (single isomer, unassigned) [Example 70B] | 99.8 | 1.1
CCN1C(=O)N[C@@H](CCC(F)(F)F)CCCCCCc2nc(cn3ccnc23)-c2cc(ncc2OC)[C@H]1C [Example 81, (12R,16R)-13-ethyl-8-methoxy-12-methyl-16-(3,3,3-trifluoropropyl)-12,13,15,16,17,18,19, 20,21,22-decahydro-14H-6,23-(azeno)-11,7-(metheno) imidazo[1,2-l][1,3,6,12]tetraazacy-clohenicosin-14-one] | 100.1 | 3.3
CCN1C(=O)NC(CC2CC2(F)F)CCCCCOc2nc(cn3ccnc23)-c2cc(ncc2OC)[C@H]1C (single isomer, unassigned) [Example 59B] | 100.1 | 3.1
CCN1C(=O)N[C@@H](CCC(F)(F)F)CCCCCOc2cc(nn3cc(C)nc23)-c2cc(ncc2OC)[C@H]1C [Example 166, (3R,7R,E)-4-ethyl-25-methoxy-12,3-dimethyl-7-(3,3,3-trifluoropropyl)-13-oxa-4,6-diaza-1(6,8)-imidazo[1,2-b]pyridazina-2(4,2)-pyridinacyclotridecaphan-5-one] | 102 | 15.1
CCN1Cc2cnc(OC)c(c2)-c2cn3ccnc3c(n2)OCCCCC[C@H](CCC(F)(F)F)NC1=O [Example 51] | 99.5 | 0.6
CCN1C(=O)NC(CC(C)C)CCCCCOc2nc(cn3ccnc23)-c2cc(ncc2OC)[C@H]1C (single isomer, unassigned) [Example 53B] | 102.3 | 0.9
CCN1C(=O)NC(COC)CCCCCOc2nc(cn3ccnc23)-c2cc(ncc2OC)[C@H]1C (single isomer, unassigned) [Example 58B] | 101.1 | 0.9
CCN1C(=O)NC(C)CCCCCOc2nc(cn3ccnc23)-c2cc(ncc2OC)[C@H]1C (single isomer, unassigned) [Example 9A] | 99.27 | 416
CCN1C(=O)NC(C(C)(C)C)CCCCCOc2nc(cn3ccnc23)-c2cc(ncc2OC)[C@H]1C (single isomer, unassigned) [Example 63A] | 98.43 | 315
CCN1C(=O)NC(CCOC(F)(F)F)CCCCCOc2nc(cn3ccnc23)-c2cc(ncc2OC)[C@H]1C (single isomer, unassigned) [Example 73A] | 100.6 | 8.6
CCN1C(=O)NCCCCCOc2nc(cn3ccnc23)-c2cccc(c2)[C@H]1C [Example 49, (12R)-13-ethyl-12-methyl-12,13,15,16,17,18,19,20-octahydro-14H-6,22-(azeno)-11,7-(metheno)imidazo[2,1-c][1,4,13,15]oxatriaza-cycloicosin-14-one] | 74.7 | 42
CCN1C(=O)N[C@@H](CCC(C)(F)F)CCOCCOc2nc(cn3ncnc23)-c2ccnc(c2)[C@H]1C [Example 180] | 100.8 | 4.15

Results, then the compound that gave them:

hOX2R_Ipone max %act [%] | EC50 [nM] | SMILES
97 | 548 | CCC1CCCCCOc2nc(cn3ccnc23)-c2cc(ncc2OC)[C@@H](C)N(CC)C(=O)N1 (single isomer, unassigned) [Example 52A]
99.7 | 8.6 | CCN1C(=O)NC(CCC(F)(F)F)C(C)CCCOc2nc(cn3ccnc23)-c2cccc(c2)[C@H]1C (single isomer, unassigned) [Example 42C]
100.3 | 54.4 | CCN1C(=O)N[C@@H](CCC(F)(F)F)CCCCCOc2nc(cn3ccnc23)C2=NC=C(S2)C1C (single isomer, unassigned) [Example 94B]
101.7 | 20.9 | CCN1C(=O)N[C@@H](C(F)(F)F)CCCCCOc2nc(cn3ccnc23)-c2cc(ncc2OC)[C@H]1C [Example 77, (12R,16R)-13-ethyl-8-methoxy-12-methyl-16-(trifluoromethyl)-12,13,16,17,18,19,20, 21-octahydro-6,23-(azeno)-11,7-(metheno)imidazo[2,1-c][1,4,10,13,15]oxatet-raazacyclohenicosin-14(15H)-one]
100.9 | 0.9 | CCN1C(=O)NC(CC2CC2(F)F)CCCCCOc2nc(cn3ccnc23)-c2cc(ncc2OC)[C@H]1C (single isomer, unassigned) [Example 59D]
95.9 | 48.8 | CCN1C(=O)N[C@@H](CC(F)(F)F)CCCCCOc2nc(nn3ccnc23)-c2cc(cnc2OC)[C@H]1C [Example 99, (12R,16R)-13-ethyl-8-methoxy-12-methyl-16-(2,2,2-trifluoroethyl)-12,13,16,17,18,19,20, 21-octahydro-6,23-(azeno)-11,7-(metheno)imidazo[2,1-c][1,4,5,9,13,15] oxapentaazacycloheni-cosin-14(15H)-one]
98.9 | 204 | CCN1C(=O)N[C@@H](CCC(F)(F)F)CCCCCOc2nc(cn3c(C)cnc23)-c2cc(nc3ccoc23)C1C (single isomer, unassigned) [Example 76A]
